Test results as given in the METLIN SMRT retention time set (Domingo-Almenara et al. 2019).

Assay: gradient 5% acetonitrile 3 min, to 50% in 2 min, to 85% in 15 min, held 3 min, 100 µL/min
Conditions: column: Zorbax Extend-C18 2.1 x 50 mm; eluents: water / acetonitrile, 0.1% formic acid
Method in brief: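 Using water and acetonitrile that each contained 0.1% formic acid, mixtures of ~100 pure standards were separated at 100 μL/min on a Zorbax Extend-C18 column (2.1 × 50 mm, 1.8 μm). The HPLC fed a quadrupole time-of-flight mass spectrometer working in positive and negative ionization mode, with dead and dwell volumes of 40 μL and 900 μL. Data were acquired over 3 months. Retention time was read from computationally picked adduct peaks after manual inspection of each.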

| Compound | RP-LC retention time |
| --- | --- |
| O=S(=O)(Nc1ccc(Br)cn1)c1ccccc1 | 780 s |
| CCOC(=O)CC(=O)N1CCSC1COc1ccccc1OC (centres undefined) | 903 s |
| O=C1CCC(C(=O)N2CCC3(CCC3O)CC2)=NN1 (centres undefined) | 575 s |
| Cc1ccc2c(c1)C(=O)NC1(CCN(C(=O)Cc3ccccc3Cl)CC1)N2C | 841 s |
| CN(C)C(CNS(=O)(=O)c1cc(Cl)ccc1Cl)c1cccs1 (centres undefined) | 591 s |
| Cc1ccc(-c2noc(Cn3ccn(-c4ccccc4)c(=O)c3=O)n2)cc1 | 844 s |
| O=S(=O)(NCCN1CCOCC1)c1cc(-c2noc(C3CCCC3)n2)cs1 | 678 s |
| O=C(CN1CCN(c2ccc(F)c(F)c2)C1=O)NC1CCSC1=O (centres undefined) | 678 s |
| CCn1c(C(=O)NCCN2CCCCC2C)c(N2CCCC2=O)c2cc(OC)ccc21 (centres undefined) | 637 s |
| COCCCNC(=O)C1CCN(c2nc3ccc(-c4cccnc4)nc3s2)CC1 | 585 s |
| COc1cccc(-c2noc(-c3nc(-c4ccc5c(c4)OCO5)no3)n2)c1OC | 1150 s |
| CCCCN(Cc1ccco1)c1nc(-c2ccc(OC)cc2)nc2ccccc12 | 940 s |
| CCN1C(=O)C(C)(C(=O)NCc2ccc(Br)cc2)Oc2cccnc21 (centres undefined) | 916 s |
| Cc1ccccc1Cc1c(C)nc2nc(SCC(=O)NCCN3CCOCC3)nn2c1C | 655 s |
| Cn1cnnc1-c1nn(C)c2c1CN(C(=O)CCc1cc(Cl)no1)CC2 | 629 s |
| COc1ccc(/C=C/c2nc3sc4c(c3c(=O)o2)CCCC4)cc1OC | 1250 s |
| O=C(NCc1[nH]nc2ccccc12)c1ccoc1 | 655 s |
| Cc1c(NC(=O)c2ccccc2-c2ccccc2C(=O)O)c(=O)n(-c2ccccc2)n1C | 681 s |
| CO[C@H]1C(=O)N(C(C)C)[C@H]1C1CCN(S(=O)(=O)c2cccc3cccnc23)CC1 | 775 s |
| COc1ccccc1-c1noc(Cn2ncn3nc(-c4ccc(C)cc4C)cc3c2=O)n1 | 1130 s |
| O=C(Cn1nc2nc(N3CCCCCC3)ccn2c1=O)Nc1cc(F)cc(F)c1 | 798 s |
| Cn1c(=O)c2nc(SCCC(=O)Nc3c(F)cccc3F)n(C)c2n(C)c1=O | 706 s |

| Compound | RP-LC retention time |
| --- | --- |
| O=C(COc1ccccc1)N1CCN(S(=O)(=O)c2cc3c4c(c2)CCC(=O)N4CCC3)CC1 | 782 s |
| COc1cc(=O)n2c(c1C(=O)Nc1ccc(N(C)C)cc1)CCCC2 | 567 s |
| CCOc1cc(=O)c(C(N)=O)nn1-c1ccc(F)c(F)c1 | 637 s |
| O=C(NCc1ccc(C(F)(F)F)cc1)C1CCCN(c2cn[nH]c(=O)c2)C1 (centres undefined) | 712 s |
| Cc1ccc(-c2csc(Nc3cc(C)ccn3)n2)cc1 | 843 s |
| CC(C)NC(=O)c1ccc(OCC2CCN(C(=O)c3cccc(Cl)c3)CC2)cc1 | 899 s |
| O=C(O)Cc1sc(Nc2cccc3ccccc23)nc1-c1ccc(F)cc1 | 918 s |
| Cc1cc(N2CCOCC2)nc(N2CCN(C(=O)CCC3CCCCC3)CC2)n1 | 714 s |
| CN1C(=O)CCc2cc(NC(=O)Cc3ccccc3Cl)ccc21 | 755 s |
| COc1ccccc1CNCc1ccc2c(c1)n(C)c(=O)n2C | 591 s |
| O=C(Cc1nnc(-c2ccc3ncccc3c2)o1)NCc1ccc(F)c(Cl)c1 | 733 s |
| CN(c1nccn2c(=O)n(CC(=O)Nc3cc(F)ccc3F)nc12)C1CCCCC1 | 786 s |
| COc1ccc(N2CC(c3nc(-c4ccccc4F)no3)CC2=O)c(OC)c1 (centres undefined) | 863 s |
| O=C(Nc1ccc(C(=O)N2CCCCC2)c(N2CCCCCC2)c1)C1CC1 | 866 s |
| Cc1cccc(Cn2cccc2-c2nc(-c3ccc4c(c3)OCO4)no2)c1 | 1360 s |
| COc1cccc(-c2noc(Cn3nc4ccc(-c5ccc(C)c(C)c5)nn4c3=O)n2)c1OC | 969 s |
| CCOc1ccccc1NC(=O)Cn1c(=O)c(CCC(=O)NCC(C)C)nc2ccccc21 | 762 s |
| O=C(c1ccc(-c2cccnc2)nc1)N1CCN(c2ccc(Cl)cc2)CC1 | 746 s |
| CC1CCC(Nc2c(-c3cccc(F)c3)nc3ncccn23)CC1 (centres undefined) | 905 s |
| CCCN1C(=O)C2(NCCc3c2[nH]c2ccc(OC)cc32)c2cc(Br)ccc21 (centres undefined) | 729 s |
| CC(C)CCNC(=O)c1ccc(Oc2nccnc2N2CCC(C)CC2)cc1 | 1170 s |
| CCc1nc(-n2cccc2)sc1C(=O)NC1CCC(C)CC1 (centres undefined) | 1180 s |
